Source: the supplement of paper PMC5412046

Experiments:
SB.mhdgc-1 = assay: AC50 for growth inhibition (viability) (log10 M); higher = less potent; conditions: SB.mhdgc-1 (hereditary c.1380delA CDH1 gastric cancer)
Procedure, shortened: (§1)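 Dosing used a pintool to add 23 nL compound in DMSO to 1536 wells, each with 500 hereditary or sporadic patient-derived gastric cancer cells, across 11 threefold dilutions starting at a final 46 μM. Viability after 48 h was measured by CellTiter-Glo luminescence on a ViewLux. The log half-maximal activity concentration derives from a four-parameter fit of that viability normalised to DMSO, limited to high-quality curve classes.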

SB.msgc-1 = assay: as above; conditions: SB.msgc-1 (sporadic gastric cancer)
Procedure, shortened: as §1

| Structure (SMILES) | AC50 for growth inhibition (log10 M) (SB.mhdgc-1) | AC50 for growth inhibition (log10 M) (SB.msgc-1) |
| --- | --- | --- |
| CNC1CCCN(c2c(F)cc3c(=O)c(C(=O)O)cn(C4CC4)c3c2OC)C1 (stereo not drawn) [Balofloxacin] | -5.63 | -4.83 |
| CC(C)=CCC/C(C)=C/CC/C(C)=C/CSc1ccccc1C(=O)O [Salirasib] | -6.43 | -5.58 |
| CN1CCN(c2cc(C(=O)Nc3ccc4c(c3)-c3c(c(C(N)=O)nn3-c3ccc(F)cc3)CC4)c(Cl)cn2)CC1 [PHA-408] | -5.88 | -5.93 |
| Nc1nc(Cl)nc2c1ncn2[C@@H]1O[C@H](CO)[C@@H](O)[C@@H]1F [Clofarabine] | -7.83 | -8.28 |
| CN(C)C(=O)[C@H](O)[C@H](Cc1ccccc1)NC(=O)c1cc2cc(Cl)ccc2[nH]1 | -5.23 | -5.13 |
| S=P(N1CC1)(N1CC1)N1CC1 [ThioTEPA] | -5.48 | -5.23 |
| COC[C@H]1OC(=O)C2=COC3=C2[C@@]1(C)\C4=C(\[C@@H]5CC[C@H](O)[C@@]5(C)C[C@H]4OC(C)=O)C3=O [17_-hydroxy Wortmannin] | -5.53 | -5.58 |
| CCN1CCN(C(=O)Cc2ccc(Nc3ncc(F)c(Nc4ccc(C(=O)Nc5ccccc5Cl)cc4)n3)cc2)CC1 [Aurora A Inhibitor I] | -4.78 | -4.73 |
| Cc1ccc(C(=O)Nc2ccc(CN3CCN(C)CC3)c(C(F)(F)F)c2)cc1C#Cc1cnc2cccnn12 [Ponatinib] | -5.78 | -4.88 |
| COc1c(C)cnc(Cn2cnc3c(Cl)nc(N)nc32)c1C [CNF-2024] | -6.33 | -7.18 |
| Cn1cc(-c2cnn3c(N)c(Br)c([C@H]4CCCNC4)nc23)cn1 | -5.88 | -6.83 |
| O=C1\C=C(OC2=C(C=CC=C12)C3=CC=CC4=C3SC5=C4C=CC=C5)\N6CCOCC6 [NU-7441] | -4.68 | -4.78 |
| COC1=CC=C2[N](CCCN(C)C)C=C(C2=C1)C/3=C(/C(=O)NC3=O)C4=C[NH]C5=C4C=CC=C5 [G?-6983] | -6.78 | -4.58 |
| NC(=O)Nc1cc(-c2ccc(CN3CCOCC3)cc2)sc1C(N)=O [AZ-TAK1 Inhibitor] | -4.68 | -4.73 |
| CO[C@H]1CCC(O[C@H]2C[C@H]([C@]3(C)CC[C@]4(C[C@H](O)[C@@H](C)[C@@H]([C@@H](C)/C=C(\C)C(=O)[C@H](C)C[C@H](C)C(=O)[O][Na])O4)O3)O[C@]3(O[C@@H]([C@H]4O[C@@](O)(CO)[C@H](C)C[C@@H]4C)C[C@@H]3C)[C@@H]2C)O[C@@H]1C (stereo partly drawn) [Nanchangmycin] | -6.83 | -6.68 |
| O=C1c2ccccc2-[n+]2ccc3c([nH]c4ccccc43)c21 [Fascaplysin] | -5.93 | -6.18 |
| COc1ccc(/C=C\c2cc(OC)c(OC)c(OC)c2)cc1O [Combretastatin A-4] | -8.68 | -5.23 |
| OC[C@H]1O[C@@H](Oc2ccc(O)cc2)[C@H](O)[C@@H](O)[C@@H]1O [Arbutin] | -4.93 | -4.78 |
| CCC(=O)N[C@H]1CC[C@H](C(=O)N(C)c2ccc(-c3nc4ccccc4o3)cc2)C1 [FASN BI] | -5.93 | -5.93 |
| CC(C)C[C@@H](C=O)NC(=O)[C@H](CC(C)C)NC(=O)[C@H](CC(C)C)NC(=O)OCc1ccccc1 [MG-132] | -6.33 | -6.08 |

| Structure (SMILES) | AC50 for growth inhibition (log10 M) (SB.mhdgc-1) | AC50 for growth inhibition (log10 M) (SB.msgc-1) |
| --- | --- | --- |
| CCC1=C2C=C(OC(=O)N3CCC(CC3)N4CCCCC4)C=CC2=NC\5=C1CN6C(=O)\C7=C(/C=C56)[C@@](O)(CC)C(=O)OC7 [Irinotecan] | -6.78 | -6.73 |
| CC(C)(O)Cn1c(NC(=O)c2ccc(-c3cn[nH]c3)s2)nc2cc(CN3CCOCC3)ccc21 | -5.83 | -5.63 |
| CC(=O)NCC(=O)N1[C@@H]2CC[C@H]1c1ccc(Nc3ncc(C(F)(F)F)c(NC4CCC4)n3)cc12 | -5.48 | -5.33 |
| CC(C)n1cnc2c(NCCc3ccc(O)cc3)nc(-c3csc4ccccc34)nc21 [StemRegenin 1] | -5.78 | -4.88 |
| O=C1NC(=O)[C@@H](c2cn3c4c(cccc24)CCC3)[C@@H]1c1c[nH]c2ccccc12 [Tivantinib] | -6.48 | -6.23 |
| COC1=CC2=C(C=C1CC3=C(F)C(=CC=C3)Cl)C(=O)\C(=C/N2[C@H](CO)C(C)C)C(O)=O [Elvitegravir] | -4.78 | -4.68 |
| COCCn1c2c([n+](Cc3cnccn3)c1C)C(=O)c1ccccc1C2=O [Sepantronium bromide] | -7.33 | -7.73 |
| O=C1CSC(=O)N1C(CCc1ccncc1)COc1ccc(-c2cccc([N+](=O)[O-])c2)cc1 (stereo not drawn) | -5.88 | -5.78 |
| CN1[C@@H]2CC(O)C[C@H]1[C@@H]1O[C@@H]12 (stereo partly drawn) [Scopine] | -4.78 | -4.83 |
| C/C(O)=C(\C#N)C(=O)Nc1ccc(C(F)(F)F)cc1 [Teriflunomide] | -4.63 | -4.78 |
| CCOC(=O)C(C#N)C\1C2=CC(=CC=C2O\C(=C1C(=O)OCC)N)Br (stereo not drawn) [HA-14-1] | -4.68 | -4.63 |
| Nc1ncnc2c1ncn2[C@@H]1O[C@H](CO)[C@@H](O)[C@H]1O [Adenosine] | -6.08 | -5.58 |
| COc1cc2c(NC3CCN(C(C)C)CC3)nc(C3CCCCC3)nc2cc1OCCCN1CCCC1 [UNC-0638] | -5.58 | -4.78 |
| CC(C)(O)CC(=O)NCCn1ccc2ncnc(Nc3ccc(Oc4cccc(C(F)(F)F)c4)c(Cl)c3)c21 [TAK-285] | -5.43 | -6.88 |
| COC1=CC=C(C=C1)/C2=C(O)/C(=O)C3=C(O)C=C(O)C(=C3O2)CC=C(C)C [Icaritin] | -4.88 | -4.63 |
| CCNC(=O)Nc1ccc(-c2nc3c(c(N4CCOC[C@@H]4C)n2)CCN(C2COC2)C3)cc1 [GDC-0349] | -5.28 | -4.83 |
| Cc1ccc2nc(NCCN)c3ncc(C)n3c2c1 | -6.18 | -5.18 |
| Cc1nnc(C(C)C)n1[C@@H]1C[C@H]2CC[C@@H](C1)N2CC[C@H](NC(=O)C1CCC(F)(F)CC1)c1ccccc1 [Maraviroc] | -5.18 | -4.78 |
| ClC1=CC=C(C=C1)C(C#N)C2=C(Cl)C=C(C=C2Cl)N3\N=C/C(=O)NC3=O (stereo not drawn) [Diclazuril] | -4.78 | -4.73 |
